A word on the EC50: it is the midpoint of the concentration-response curve.

One experiment addresses T1, human LPA3 (Homo sapiens, UniProt Q9UBY5).
T1 sequence (Q9UBY5 1-353): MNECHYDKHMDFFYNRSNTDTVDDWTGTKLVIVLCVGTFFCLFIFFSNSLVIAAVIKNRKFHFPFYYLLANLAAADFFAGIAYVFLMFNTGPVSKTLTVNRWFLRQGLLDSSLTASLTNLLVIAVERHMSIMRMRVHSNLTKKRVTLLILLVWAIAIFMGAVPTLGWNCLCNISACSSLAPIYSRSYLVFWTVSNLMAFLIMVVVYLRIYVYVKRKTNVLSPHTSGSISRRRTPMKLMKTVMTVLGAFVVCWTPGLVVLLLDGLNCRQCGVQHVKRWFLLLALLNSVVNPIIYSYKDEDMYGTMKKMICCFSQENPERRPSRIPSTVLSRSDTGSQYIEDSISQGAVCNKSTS
The experiment in a line: GTP[γ35S] binding, LPA3-transfected HEK293T cell membranes. In kind it is biochemical. Also noted: expressed in transfected cells; host or cells: HEK293T (transient). The settings on record: for EC50: agonist activity, read-out: LP A3 EC50; for LP A3 Emax: efficacy compared to LPA (LPA = 100). The method, then: (§1) The appropriate receptor plasmid DNA (encoding mouse LPA1, human LPA2 or human LPA3) was mixed with equal amounts of expression plasmids (pcDNA3) encoding a mutated (C351F) rat Gi2a, cow β1, and γ2 proteins and these DNAs were used to transfect monolayers of HEK293T cells (where ‘T’ indicates expression of the SV-40 virus large T antigen) using the calcium phosphate precipitate method. After about 60 hours, cells were harvested, membranes were prepared, aliquoted and stored at −70° C. until use.
(§2) The GTP[35 γS] assay was performed as described by us previously. Membranes containing 5 ug of protein were incubated in 0.1 ml GTP-binding buffer (in mM: HEPES 50, NaCl 100, MgCl2 10, pH7.5) containing […], […], 0.1 nM GTP[35 γS] (1200 Ci/mmol), and indicated lipid(s) for 30 minutes at 30° C. Samples were analyzed for membrane-bound radionuclide using a Brandel Cell Harvester (Gaithersburg, Md.).
(§3) The X-intercept of the linear transformation is equal to the inverse log of the KI.
(§4) Membranes prepared from these cells are used to measure GTPγ[^35S] binding as a function of test compound concentration. The resulting dose-response curves provide relative potency (EC50) and efficacy (Emax) for the test compounds.
(In general: GTPγS is a poorly hydrolysed GTP analogue; its binding reports G protein activation.)

A further experiment concerns the target human LPA2 (Homo sapiens, UniProt Q9HBW0). The experiment in a line: GTP[γ35S] binding, LPA2-transfected HEK293T cell membranes. In kind it is biochemical. Details: expressed in transfected cells; host or cells: HEK293T (transient). The settings on record: for EC50: agonist activity, read-out: LP A2 EC50. The method, then: as §1, §2, §4
Another experiment deals with T2, LPP3 (PAP2b) (Homo sapiens, UniProt O14495).
T2 sequence (O14495 1-311): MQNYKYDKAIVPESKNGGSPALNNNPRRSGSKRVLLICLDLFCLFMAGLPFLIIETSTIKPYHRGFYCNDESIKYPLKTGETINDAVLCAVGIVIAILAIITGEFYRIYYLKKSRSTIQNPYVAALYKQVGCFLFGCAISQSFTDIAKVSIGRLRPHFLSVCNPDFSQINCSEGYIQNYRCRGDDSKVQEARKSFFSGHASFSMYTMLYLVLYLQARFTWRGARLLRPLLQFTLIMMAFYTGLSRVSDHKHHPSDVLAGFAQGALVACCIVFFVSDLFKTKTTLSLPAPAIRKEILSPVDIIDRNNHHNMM
The experiment is described as follows: LPP inhibition, competition with [32P]LPA. The following applies: for rank order of inhibition of the three LPPs: LPP1 (PAP2a), LPP2 (PAP2c), LPP3 (PAP2b). In kind it is biochemical. The method, then: NOHPP was also tested for activity at the three cloned LPPs. Although the phosphonate head group eliminates the possibility of NOHPP acting as a substrate, it is possible that the compound could be a competitive inhibitor.

For a further experiment, the target named is mouse LPA1 (Mus musculus, UniProt P61793). The experiment in a line: GTP[γ35S] binding, LPA1-transfected HEK293T (or RH7777) cell membranes. Details: expressed in transfected cells; host or cells: HEK293T (transient); for part of the results RH7777 membranes. In kind it is biochemical. The method, then:
as §1, §2, §3, §4

In another experiment the test system is Xenopus laevis ooctyes. The settings on record: previously reported; cited from earlier work.
Another experiment has as its system human platelets. The settings on record: previously reported; cited from earlier work.
Where [1] appears, read: efficacy compared to LPA (LPA = 100).

“Also recorded” adds a separate entry of the source.

Chain of human LPA2 (Q9HBW0 whole entry): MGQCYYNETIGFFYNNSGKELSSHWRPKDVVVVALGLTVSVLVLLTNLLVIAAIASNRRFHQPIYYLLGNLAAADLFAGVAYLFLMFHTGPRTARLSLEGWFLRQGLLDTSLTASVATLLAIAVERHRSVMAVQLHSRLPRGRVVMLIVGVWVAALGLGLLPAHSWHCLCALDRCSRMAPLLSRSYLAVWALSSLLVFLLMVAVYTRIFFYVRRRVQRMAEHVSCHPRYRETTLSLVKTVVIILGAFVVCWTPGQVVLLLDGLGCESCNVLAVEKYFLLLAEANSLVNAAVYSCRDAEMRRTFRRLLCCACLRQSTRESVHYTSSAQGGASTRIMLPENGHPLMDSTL
Chain of mouse LPA1 (P61793 whole entry): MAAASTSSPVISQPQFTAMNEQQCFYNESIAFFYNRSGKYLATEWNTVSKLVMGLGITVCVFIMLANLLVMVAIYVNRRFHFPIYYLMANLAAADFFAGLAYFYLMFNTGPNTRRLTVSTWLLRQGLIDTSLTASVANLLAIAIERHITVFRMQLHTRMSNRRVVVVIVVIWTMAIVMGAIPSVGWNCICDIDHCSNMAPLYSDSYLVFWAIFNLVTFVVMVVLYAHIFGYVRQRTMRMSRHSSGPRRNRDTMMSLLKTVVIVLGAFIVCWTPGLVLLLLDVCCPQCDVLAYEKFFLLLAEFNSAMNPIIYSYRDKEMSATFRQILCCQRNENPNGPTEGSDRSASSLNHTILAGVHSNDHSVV

In the case of “1-acyl, 2-hydroxyl-sn-glycerol-3-phosphate [LPA, reference compound]”, the EC50 was 262 nM on human LPA3 (GTP[γ35S] binding) and 6.8 nM at human LPA2 (GTP[γ35S] binding). On human LPA3, the “LP A3 Emax” value was 100.

In the case of `CCCCCCCC/C=C\CCCCCCCC(=O)NCCC(O)P(=O)(O)O` (racemic) [NOHPP, (9Z)-N-(rac-3-hydroxy-3-phosphonopropyl)octadec-9-enamide], at human LPA3 (GTP[γ35S] binding), the “agonist activity / efficacy relative to LPA at LPA3” value is “far less efficacious; also recorded: little activity” and the “agonist potency relative to LPA at LPA3” value is “distinctly less potent; also recorded: greater than two log orders less potent”. On LPP3 (PAP2b), the “rank order of inhibition of the three LPPs” value was “LPP3>LPP1>>LPP2”. Also, the “rank order of inhibition of the three LPPs” value at LPP3 (PAP2b) (listed as VPC12031) is reported as “markedly better at the PAP2b (LPP3) than PAP2a (LPP1) which in turn is better than PAP2c (LPP2)”. In addition, on LPP3 (PAP2b) (NOHPP in competition with 50 nM [32P]LPA), the “inhibition of LPP3” value is reported as “inhibited”. Also, at human LPA2 (GTP[γ35S] binding), the “agonist activity / efficacy relative to LPA at LPA2” value was “as efficacious as; also recorded: fullly efficacious” and the “agonist potency relative to LPA at LPA2” value was “somewhat less potent than; also recorded: about one log order less potent”. Further, on mouse LPA1 (GTP[γ35S] binding), the “agonist activity / efficacy relative to LPA at LPA1” value is recorded as “as efficacious as; also recorded: fullly efficacious” and the “agonist potency relative to LPA at LPA1” value was “somewhat less potent than; also recorded: about one log order less potent”.

In the case of `CCCCCCCCCCCCCCCC(=O)N[C@@H](COP(=O)(O)O)C(=O)O` [NASPA, N-palmitoyl serine phosphate], in the experiment on Xenopus laevis ooctyes, the “oocyte depolarization (literature)” value is on record as “antagonize”. For the same compound, in the experiment on human platelets, the “platelet aggregation (literature)” value is “antagonize”.

With `CCCCCCCCCCCCCCCC(=O)N[C@@H](CCCC)COP(=O)(O)O` [PNPA, N-palmitoyl-norleucinol-1-phosphate], the “platelet aggregation (literature)” value with human platelets is “aggregates human platelets without regard to stereoselectivity”.

Consider `CCCCCCCC/C=C\CCCCCCCC(=O)N[C@H](C)COP(=O)(O)O` [VPC12086], for which the “agonist potency relative to LPA at LPA1” value on mouse LPA1 (GTP[γ35S] binding) was “more potent than 1-oleoyl LPA; also recorded: more potent and efficacious than LPA”.

In the case of `CCCCCCCC/C=C\CCCCCCCC(=O)N[C@@H](CC)COP(=O)(O)O` [VPC12115], the EC50 at human LPA3 (GTP[γ35S] binding) was found to be 4980 nM; on human LPA2 (GTP[γ35S] binding), 4280 nM; at mouse LPA1 (agonist activity, GTP[γ35S] binding, read-out: LP A1 EC50) it was 1580 nM. For the same compound, the “LP A3 Emax” value at human LPA3 amounted to 89.3. Moreover, the “LP A2 Emax” value on human LPA2 (setting [1]) was determined as 85.6. For the same compound, on mouse LPA1 (setting [1]), the “LP A1 Emax” value is reported as 62.3.

For the compound `CCCCCCCC/C=C\CCCCCCCC(=O)N[C@H](CN)COP(=O)(O)O` [VPC12178], the “agonist potency relative to LPA at LPA1” value at mouse LPA1 (GTP[γ35S] binding) is recorded as “more potent than 1-oleoyl LPA”.

As for `CCCCCCCC/C=C\CCCCCCCC(=O)N[C@H](CO)COP(=O)(O)O` [VPC31143], the “agonist potency relative to LPA at LPA1” value at mouse LPA1 (GTP[γ35S] binding) is reported as “more potent than 1-oleoyl LPA”.

As for `CCCCCCCC/C=C\CCCCCCCC(=O)N[C@@H](COP(=O)(O)O)Cc1ccc(OCc2ccc(CCCCC)cc2)cc1` [VPC31162], at human LPA3 (GTP[γ35S] binding), the “agonist activity / efficacy relative to LPA at LPA3” value is listed as “agonist”. Further, the “antagonist activity at LPA2” value on human LPA2 (block of LPA-induced GTP[γ35S] binding) is reported as “antagonist activity”. Also, the “agonist activity / efficacy relative to LPA at LPA1” value at mouse LPA1 (GTP[γ35S] binding) was “agonist”.

Values taken from patent US7169818B2, “Lysophosphatidic acid receptor agonists and antagonists” (University of Virginia Patent Foundation, priority 2000, dated 2007).
